What all share (type): in vivo
Assay [1] concerns creeping bentgrass (Agrostis palustris) putting green. The experiment in a line: Example 11, 2015 spring green-up (dormancy break) study: visual turfgrass biomass rating. The following applies: urea only 0.2 lb. N/1000 ft^2, no bio-adjuvant; scale 1-5. The protocol: […] Objective biomass ratings were also performed based on an increase in dried weight of clippings. Clippings were collected over pre-measured plot areas in each treatment replicate using a Toro® brand walk-behind greens mower Model Greensmaster 8000 at the height described in this Example and dried in a drying oven (60° C.) for approximately 48 hours before being weighed.
(§1) Treatments were applied in the same manner and using the same equipment as previously described in Example 1. Turfgrass quality ratings and biomass ratings were performed as described in Example 1. Clippings were also collected as described in Example 1.
(§2) Treatments were applied once only to 2 ft ([…])×10.5 ft (3.2 m) plots of turfgrass on Apr. 1, 2015, while the turfgrass was still in winter dormancy (desiccated, brown, and thin). No additional applications were made to the study area. The study was rated visually for turfgrass biomass increase on Apr. 3, 2015 (2 days after treatment), on Apr. 11, 2015, and on Apr. 17, 2015. Turfgrass quality ratings were taken on Apr. 11, 2015 and Apr. 17, 2015. Turfgrass clippings were collected, dried, and weighed on Apr. 19, 2015 and May 2, 2015.

Assay [2] has the same test system. The experiment in a line: Example 11: dried clippings weights. The conditions noted are these: urea only 0.2 lb. N/1000 ft^2, no bio-adjuvant. Here is the method: Some biomass ratings were subjective visual estimations based on appearance of a combination of increased biomass and increased density on a 1 (least increase) to 9 (most increase) scale. Objective biomass ratings were also performed based on an increase in dried weight of clippings. Clippings were collected over pre-measured plot areas in each treatment replicate using a Toro® brand walk-behind greens mower Model Greensmaster 8000 at the height described in this Example and dried in a drying oven (60° C.) for approximately 48 hours before being weighed.
as §1, §2

For assay [3] the test system is unchanged. In words: Example 11: turfgrass quality rating. The conditions noted are these: scale 1-9, urea 0.2 lb. N/1000 ft^2. The protocol: as §1, §2

`NC(N)=O` [Urea only]: in assay [1], the “Appearance (Biomass Increase) Apr. 3, 2015 Mean” value worked out at 1.5; the “Appearance (Biomass Increase) Apr. 11, 2015 Mean” value amounted to 2.5; the “Appearance (Biomass Increase) Apr. 17, 2015 Mean” value amounted to 3; the “Appearance (Biomass Increase) Apr. 25, 2015 Mean” value amounted to 2.25. Besides, in assay [2], the “Clippings (Biomass) Dry wt (g) Apr. 19, 2015 Mean” value is 4.623 g and the “Clippings (Biomass) Dry wt (g) May 2, 2015 Mean” value is on record as 6.175 g. The “Turfgrass Quality” value in assay [3] (Apr. 11, 2015) is 5.5. Further, in assay [3] (Apr. 17, 2015), the “Turfgrass Quality” value was found to be 5.5. In addition, the “Turfgrass Quality” value in assay [3] (Apr. 25, 2015) was determined as 5.75.

For the origin of these results see patent US20170265465A1, “BIORATIONAL TREATMENT PRODUCTS AND METHODS OF USING SAME” (Board of Trustees of Michigan State University, priority 2014, published 2017).
